Columns and labels:
KAT6A = target: T1, KAT6A (Homo sapiens, UniProt Q92794); test: KAT6A enzyme inhibition assay (SAMDI mass spectrometry); type: biochemical; conditions: His-TEV-KAT6A 501-784 enzyme construct
T1 construct: His-TEV tag (N, cleaved yes); made in house

KAT5 = target: T2, KAT5 (Homo sapiens, UniProt Q92993); test: KAT5 enzyme inhibition assay (SAMDI mass spectrometry); type: biochemical; conditions: His-TEV-FL KAT5-Flag enzyme construct
T2 construct: His-TEV tag (N, cleaved yes); made in house
T2 sequence (Q92993 with tags, fused parts or gaps): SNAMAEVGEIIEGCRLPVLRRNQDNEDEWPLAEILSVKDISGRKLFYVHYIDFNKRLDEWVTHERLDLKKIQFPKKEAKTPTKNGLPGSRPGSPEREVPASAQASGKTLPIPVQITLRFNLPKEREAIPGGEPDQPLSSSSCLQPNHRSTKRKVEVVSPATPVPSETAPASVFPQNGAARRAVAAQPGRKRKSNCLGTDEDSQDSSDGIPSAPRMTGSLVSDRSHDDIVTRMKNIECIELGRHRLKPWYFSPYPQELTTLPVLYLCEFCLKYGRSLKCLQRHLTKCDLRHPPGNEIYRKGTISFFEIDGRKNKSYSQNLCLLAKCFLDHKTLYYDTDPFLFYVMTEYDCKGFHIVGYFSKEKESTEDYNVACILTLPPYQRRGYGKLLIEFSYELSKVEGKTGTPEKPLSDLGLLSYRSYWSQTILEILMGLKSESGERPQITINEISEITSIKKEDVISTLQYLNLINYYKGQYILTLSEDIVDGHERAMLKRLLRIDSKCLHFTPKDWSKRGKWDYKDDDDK

T1 sequence (Q92794 with tags, fused parts or gaps): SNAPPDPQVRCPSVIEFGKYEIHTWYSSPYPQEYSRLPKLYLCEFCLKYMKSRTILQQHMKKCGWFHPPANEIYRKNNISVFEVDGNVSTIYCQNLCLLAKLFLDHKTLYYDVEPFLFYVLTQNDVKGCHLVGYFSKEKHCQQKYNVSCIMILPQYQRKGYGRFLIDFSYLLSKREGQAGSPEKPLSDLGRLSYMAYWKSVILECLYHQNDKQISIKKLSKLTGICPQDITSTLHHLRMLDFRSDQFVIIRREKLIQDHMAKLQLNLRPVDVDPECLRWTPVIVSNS

Compound	IC50 (KAT6A)	IC50 (KAT5)
Cc1cc(-c2ccccc2)cc(C(=O)NNS(=O)(=O)Cc2ccc(F)cc2)c1F [Compound I-84]	≤ 10 µM	≤ 10 µM
COCCN1CCCC(CS(=O)(=O)NNC(=O)c2cc(-c3cccc(F)c3)cc(C)c2F)C1 (stereo not shown) [Compound I-408]	10 to 50 µM	≤ 10 µM
O=C(NNS(=O)(=O)c1cccc(Cl)c1)c1ccccc1F [Compound I-127]	10 to 50 µM	> 100 µM
Cc1cc(-c2cccc(F)c2F)cc(C(=O)NNS(=O)(=O)C2CCCCC2)c1F [Compound I-381]	10 to 50 µM	≤ 10 µM
O=C(NNS(=O)(=O)c1ccccc1Cl)c1ccccc1F [Compound I-130]	> 100 µM	> 100 µM
Cc1cc(-c2cccc(F)c2Cl)cc(C(=O)NNS(=O)(=O)CC2CCCCC2)c1F [Compound I-398]	10 to 50 µM	50 to 100 µM
O=C(NNS(=O)(=O)c1cccc(Cl)c1)c1c(F)ccc(-c2cn[nH]c2)c1F [Compound I-305]	10 to 50 µM	> 100 µM
Cc1c(F)cc(-c2ccccc2)cc1C(=O)NNS(=O)(=O)c1ccccc1 [Compound I-205]	50 to 100 µM	> 100 µM
Cc1cc(-c2ccccc2)cc(C(=O)NNS(=O)(=O)C2CCN(C)CC2)c1F [Compound I-90]	10 to 50 µM	10 to 50 µM
CCC(=O)N1CC(S(=O)(=O)NNC(=O)c2cc(-c3ccccc3)cc(C)c2F)C1 [Compound I-113]	10 to 50 µM	50 to 100 µM
CN1CCC(c2ccc(F)c(C(=O)NNS(=O)(=O)C3CCCCC3)c2)C1 (stereo not shown) [Compound I-407]	> 100 µM	> 100 µM
Cc1cc(-c2ccccc2)cc(C(=O)Nc2nnc3n2CCCC3)c1F [Compound I-150]	> 100 µM	> 100 µM
Cc1cc(-c2ccccc2)cc(C(=O)NNS(=O)(=O)c2cccc(O)c2)c1F [Compound I-235]	≤ 10 µM	≤ 10 µM
Cc1c(-c2ccccc2)ccc(F)c1C(=O)NCC(=O)NC(Cc1ccccc1)C(C)C (stereo not shown) [Compound I-387]	> 100 µM	> 100 µM
Cc1cc(-c2ccc(F)cc2)cc(C(=O)NNS(=O)(=O)C2CCCCC2)c1F [Compound I-319]	50 to 100 µM	10 to 50 µM
Cc1cc(Br)cc(C(=O)NNS(=O)(=O)C2CCCCC2)c1F [Compound I-293]	50 to 100 µM	≤ 10 µM
Cc1cc(-c2cccc(F)c2)cc(C(=O)NNS(=O)(=O)C2CCOC2)c1F (stereo not shown) [Compound I-438]	10 to 50 µM	10 to 50 µM
Cc1cc(-c2ccccc2)cc(C(=O)NNS(=O)(=O)C(C)(C)C)c1F [Compound I-21]	> 100 µM	> 100 µM
COCCC(=O)N1CCCC(S(=O)(=O)NNC(=O)c2cc(-c3ccccc3)cc(C)c2F)C1 (stereo not shown) [Compound I-112]	10 to 50 µM	10 to 50 µM
O=C(NNS(=O)(=O)c1ccccc1)c1cc(-c2ccccc2)ccc1F [Compound I-253]	10 to 50 µM	50 to 100 µM
O=C(NNS(=O)(=O)c1ccc(Cl)cc1)c1c(F)ccc(-c2ccccc2)c1F [Compound I-156]	≤ 10 µM	10 to 50 µM
O=C(NNS(=O)(=O)C1CCCCC1)c1cc(-c2cc(F)cc(Cl)c2)cc(Cl)c1F [Compound I-490]	10 to 50 µM	50 to 100 µM
COc1cccc(CS(=O)(=O)NNC(=O)c2cc(-c3ccccc3)cc(C)c2F)c1 [Compound I-80]	≤ 10 µM	≤ 10 µM
COCCN1CC(S(=O)(=O)NNC(=O)c2cccc(C)c2F)C1 [Compound I-103]	> 100 µM	> 100 µM

Compound	IC50 (KAT6A)	IC50 (KAT5)
O=C(NNS(=O)(=O)C1CCCCC1)c1cc(Cl)cc(Cl)c1F [Compound I-413]	> 100 µM	10 to 50 µM
Cc1cc(-c2ccccc2)cc(C(=O)NNS(=O)(=O)Cc2cccc(Cl)c2)c1F [Compound I-5]	≤ 10 µM	≤ 10 µM
Cc1cc(-c2ccccc2)cc(C(=O)NNS(=O)(=O)CC2CCCN(C(=O)C(C)(C)C)C2)c1F (stereo not shown) [Compound I-281]	≤ 10 µM	≤ 10 µM
O=C(NNS(=O)(=O)c1cccc(Cl)c1)c1cc(-c2ccccc2)ccc1F [Compound I-152]	≤ 10 µM	10 to 50 µM
Cc1cc(-c2ccccc2)cc(C(=O)NNS(=O)(=O)CC2CNCCO2)c1F (stereo not shown) [Compound I-426]	≤ 10 µM	10 to 50 µM
Cc1cc(-c2ccccc2)cc(C(=O)NNS(=O)(=O)C(C)C)c1F [Compound I-3]	50 to 100 µM	10 to 50 µM
CCc1cc(Cl)c(F)c(C(=O)NNS(=O)(=O)CC2CCOCC2)c1 [Compound I-423]	> 100 µM	10 to 50 µM
O=C(NNS(=O)(=O)C1CCOCC1)c1cc(-c2ccc(O)cc2)cc(Cl)c1F [Compound I-459]	≤ 10 µM	> 100 µM
O=C(NNS(=O)(=O)c1ccc2ccccc2c1)c1cccc(-c2ccccc2)c1 [Compound I-246]	≤ 10 µM	50 to 100 µM
O=C(NNS(=O)(=O)c1ccccc1)c1ccccc1 [Compound I-159]	50 to 100 µM	> 100 µM
COCCN1CCC(CS(=O)(=O)NNC(=O)c2cc(-c3ccccc3)cc(C)c2F)C1 (stereo not shown) [Compound I-336]	10 to 50 µM	10 to 50 µM
COc1ccc(CN2CCC(S(=O)(=O)NNC(=O)c3cc(-c4ccccc4)cc(C)c3F)C2)cc1 (stereo not shown) [Compound I-27]	10 to 50 µM	10 to 50 µM
CCc1cccc(-c2cc(C)c(F)c(C(=O)NNS(=O)(=O)CC3CCCCC3)c2)c1 [Compound I-373]	50 to 100 µM	50 to 100 µM
Cn1nc(NNS(=O)(=O)c2ccccc2)c2cccc(-c3ccccc3)c21 [Compound I-49]	> 100 µM	> 100 µM
O=C(NNS(=O)(=O)C1CCCCC1)c1c(F)c(-c2ccccc2)cc2nc[nH]c12 [Compound I-467]	> 100 µM	> 100 µM
COc1ccc(Cn2cnc3c(C(=O)NNS(=O)(=O)c4ccccc4)cc(-c4ccccc4)cc32)cc1 [Compound I-248]	10 to 50 µM	50 to 100 µM
Cc1cc(-c2ccccc2)cc(C(=O)NCCS(=O)(=O)Nc2ccccc2)c1F [Compound I-75]	10 to 50 µM	50 to 100 µM
Cc1cc(-c2ccccc2)cc(C(=O)NNS(=O)(=O)C2CCN(Cc3cccc(Cl)c3)C2)c1F (stereo not shown) [Compound I-30]	10 to 50 µM	10 to 50 µM
Cc1nn(Cc2ccccc2)cc1C(=O)NNS(=O)(=O)c1ccccc1 [Compound I-122]	> 100 µM	> 100 µM
O=C(NNS(=O)(=O)c1ccc2ccccc2c1)c1ccccc1F [Compound I-238]		50 to 100 µM
Cc1c(-c2ccccc2)ccc(F)c1C(=O)NNS(=O)(=O)CC(Cc1ccccc1)C(C)C (stereo not shown) [Compound I-268]	10 to 50 µM	10 to 50 µM
Cc1cc(-c2ccccc2)cc(C(=O)NNS(=O)(=O)CC2CN(C(=O)OC(C)(C)C)CCO2)c1F (stereo not shown) [Compound I-424]	≤ 10 µM	≤ 10 µM
COCc1cc(Cl)c(F)c(C(=O)NNS(=O)(=O)C2CCOCC2)c1 [Compound I-453]	> 100 µM	> 100 µM
COCCN1CCCC(S(=O)(=O)NNC(=O)c2cc(-c3ccccc3)cc(C)c2F)C1 (stereo not shown) [Compound I-101]	10 to 50 µM	10 to 50 µM

Compound	IC50 (KAT6A)	IC50 (KAT5)
Cc1cc(-c2ccccc2)cc(C(=O)NNS(=O)(=O)Cc2ccccc2)c1F [Compound I-9]	≤ 10 µM	≤ 10 µM
Cc1cccc(-c2cc(C)c(F)c(C(=O)NNS(=O)(=O)C3CCCCC3)c2)c1 [Compound I-325]	10 to 50 µM	≤ 10 µM
Cc1cccc(-c2cc(Cl)c(F)c(C(=O)NNS(=O)(=O)C3CCCCC3)c2)c1 [Compound I-404]	10 to 50 µM	10 to 50 µM
Cc1cc(-c2ccccc2)cc(C(=O)NNS(=O)(=O)C2CCNC2)c1F (stereo not shown) [Compound I-23]	10 to 50 µM	10 to 50 µM
O=C(NNS(=O)(=O)c1ccccc1)c1c(F)ccc(-c2cn[nH]c2)c1F [Compound I-167]	10 to 50 µM	50 to 100 µM
Cc1cccc(C(=O)NNS(=O)(=O)c2ccccc2)c1F [Compound I-183]	≤ 10 µM	10 to 50 µM
COc1ccc(C(=O)NNS(=O)(=O)c2ccccc2)cc1 [Compound I-192]	> 100 µM	> 100 µM
O=C(NNS(=O)(=O)c1ccccc1)c1cc(-c2ccccc2)cc(Cl)c1F [Compound I-220]	≤ 10 µM	≤ 10 µM
O=C(NNS(=O)(=O)c1ccccc1)c1c(F)ccc2ccccc12 [Compound I-236]	> 100 µM	> 100 µM
O=C(NNCc1ccccc1)c1ccccc1F [Compound I-169]	> 100 µM	> 100 µM
O=C(NNS(=O)(=O)CC1CCOCC1)c1cc(Cl)cc(Cl)c1F [Compound I-412]	> 100 µM	10 to 50 µM
O=C(NNS(=O)(=O)c1ccccc1)c1c(F)ccc(-c2cnc[nH]2)c1F [Compound I-497]	10 to 50 µM	50 to 100 µM
Cc1cc(-c2ccccc2)cc(C(=O)NNS(=O)(=O)c2cccc(C3CC3)c2)c1F [Compound I-201]		> 100 µM
O=C(NNS(=O)(=O)c1ccc2ccccc2c1)c1ccccc1 [Compound I-146]		> 100 µM
O=C(NNS(=O)(=O)c1ccccc1)c1ccc(Cl)cc1 [Compound I-181]		> 100 µM
CC(C)n1nc(CNC(=O)CNS(=O)(=O)c2ccccc2)c2ccccc21 [Compound I-525]		> 100 µM
COc1ccc(S(=O)(=O)NNC(=O)c2ccccc2F)cc1 [Compound I-179]		> 100 µM
Cc1cc(-c2ccccc2)cc(C(=O)NNS(=O)(=O)c2ccccc2)c1F [Compound I-157]		≤ 10 µM
Cc1cc(-c2ccccc2)cc(C(=O)NNS(=O)(=O)c2cccc(C(C)C)c2)c1F [Compound I-218]		> 100 µM
COc1cccc(C(=O)NNS(=O)(=O)c2ccccc2)c1 [Compound I-182]		> 100 µM
O=C(NNS(=O)(=O)c1ccccc1)c1cccc(F)c1 [Compound I-191]		> 100 µM
O=C(NNS(=O)(=O)CC1CCOCC1)c1cc(C2CCCO2)cc(Cl)c1F (stereo not shown) [Compound I-506]		≤ 10 µM
O=C(NNS(=O)(=O)c1ccccc1F)c1ccccc1 [Compound I-163]		> 100 µM

— US20220267260A1, “COMPOUNDS CONTAINING A SULFONIC GROUP AS KAT INHIBITORS” (Epizyme, Inc., priority 2016, published 2022)
